Values quoted from earlier work as cited in patent publication US5043340A, “Derivatives of 4-desacetyl VLB C-3 carboxhydrazide” (Eli Lilly and Company, priority 1990, dated 1991).

Key:
[1] = tested on: Ridgeway osteogenic sarcoma; details: mouse, in vivo; cited from earlier work
[2] = tested on: Gardner lymphosarcoma; details: mouse, in vivo; cited from earlier work
[3] = tested on: P 1534(J) leukemia; details: mouse, in vivo; cited from earlier work
[4] = tested on: transplanted tumors; details: mouse, in vivo; cited from earlier work
[5] = in humans, compared with vincristine; cited from earlier work
[6] = tested on: vincristine-resistant leukemias; details: in humans; cited from earlier work

SMILES | activity against Ridgeway osteogenic sarcoma [1] | activity against Gardner lymphosarcoma [2] | activity against P 1534(J) leukemia [3] | anti-tumor activity [4] | neurotoxicity [5] | effective against vincristine-resistant leukemias [6]
CCC1(O)CC2CN(CCc3c([nH]c4ccccc34)C(C(=O)OC)(c3cc4c(cc3OC)N(C)C3C(O)(C(=O)NN)C(O)C5(CC)C=CCN6CCC43C65)C2)C1 (stereo not drawn) [4-desacetyl VLB C-3 carboxhydrazide] | active | active | active | active anti-tumor agent against transplanted tumors in mice |  | 
CC[C@]1(O)C[C@@H]2CN(CCc3c([nH]c4ccccc34)[C@@](C(=O)OC)(c3cc4c(cc3OC)N(C)[C@H]3[C@@](O)(C(N)=O)[C@H](O)[C@]5(CC)C=CCN6CC[C@]43[C@@H]65)C2)C1 [vindesine, 4-desacetyl VLB C-3 carboxamide] |  |  |  |  | less neurotoxicity than does vincristine | apparently effective against vincristine-resistant leukemias
